According to article PMC4026384, “Antibacterial Activity of THAM Trisphenylguanide against Methicillin-Resistant Staphylococcus aureus” (PLoS ONE, 2014):
In brackets after ≈: the same amount, converted by molar mass. Like-named read-outs stand apart in the source and are kept apart here.

Legend:
[1] = tested on: MRSA strain LAC, USA300; experiment: Minimum inhibitory concentration (microdilution); assay type: cell-based, Staphylococcus aureus; conditions: MRSA USA300; LB media; median of at least 3 determinations
Protocol: (§1) Minimum inhibitory concentration (MIC) values were determined for those compounds showing the most antibacterial activity in the bacterial viability assays (see Supplemental Materials) against each of the strains of bacteria using a microdilution method in 96 well plates with LB media according to guidelines published by the British Society for Antimicrobial Chemotherapy. Minimum bactericidal concentrations (MBC) were determined by plating 10 µL and 100 µL from each well showing no signs of growth after overnight incubation of the MIC plates and determining the minimum concentration showing a 3-log reduction of viable bacteria. MIC and MBC were also determined in cation-adjusted Mueller-Hinton broth (Hardy Diagnostics, Santa Maria, CA) for some compounds and strains.

[2] = tested on: S. aureus RN4220; experiment: Bacterial viability assay; assay type: cell-based, Staphylococcus aureus; conditions: one hour in PBS, CFU, ± SEM
Protocol: (§2) Supplementary file pone.0097742.s003.doc: Table S1 Bacterial viability assays. Bacteria were grown at 37°C to mid-log phase (OD600 ∼0.4). The bacteria were diluted to approximately 10^4 to 10^5 colony forming units (CFU) per milliliter and added to a solution of phosphate buffered saline (PBS, 16 mM phosphate, 0.14 M NaCl, pH 7.2) containing the compound at varied concentrations. Samples were incubated at 37°C for one hour and then plated on Luria Bertani (LB) agar at appropriate dilutions in PBS. The plates were incubated overnight at 37°C and colonies enumerated the following day. IC50s were calculated from graphs of CFU as a function of compound concentration. Chlorhexidine was used as a positive control. Included are those guanide (G), biguanide (BG), phenylguanide (ΦG) compounds that had some antibacterial activity in an initial screen at 30 and 100 µM, as well as their and parent amines. Compounds synthesized from 1,4-butanediamine, 1,6-hexanediamine, trisethylaminomelamine, trisbutylaminomelamine, and the dendrimer PAMAM (G0) were not active against E. coli, P aeruginosa, or S. aureus so they were not tested against the remaining bacteria (data not shown). (DOC) Click here for additional data file.
as §2, with “Bacterial” for “Supplementary file pone.0097742.s003.doc: Table S1 Bacterial”, “~0.4).” for “∼0.4).”, “μM,” for “µM,”, “shown).” for “shown). (DOC) Click here for additional data file.”

[3] = tested on: MRSA USA300; experiment: Bacterial viability assay; assay type: cell-based, Staphylococcus aureus; conditions: one hour in PBS, CFU, ± SEM
Protocol: (§3) Supplementary file pone.0097742.s003.doc: Table S1 Bacterial viability assays. Bacteria were grown at 37°C to mid-log phase (OD600 ∼0.4). The bacteria were diluted to approximately 10^4 to 10^5 colony forming units (CFU) per milliliter and added to a solution of phosphate buffered saline (PBS, 16 mM phosphate, 0.14 M NaCl, pH 7.2) containing the compound at varied concentrations. Samples were incubated at 37°C for one hour and then plated on Luria Bertani (LB) agar at appropriate dilutions in PBS. The plates were incubated overnight at 37°C and colonies enumerated the following day. IC50s were calculated from graphs of CFU as a function of compound concentration. Chlorhexidine was used as a positive control. […] (DOC) Click here for additional data file.
(§4) Bacterial viability assays. Bacteria were grown at 37°C to mid-log phase (OD600 ~0.4). The bacteria were diluted to approximately 10^4 to 10^5 colony forming units (CFU) per milliliter and added to a solution of phosphate buffered saline (PBS, 16 mM phosphate, 0.14 M NaCl, pH 7.2) containing the compound at varied concentrations. Samples were incubated at 37°C for one hour and then plated on Luria Bertani (LB) agar at appropriate dilutions in PBS. The plates were incubated overnight at 37°C and colonies enumerated the following day. IC50s were calculated from graphs of CFU as a function of compound concentration. Chlorhexidine was used as a positive control.

[4] = tested on: A. baumannii ATCC 19606; experiment: Bacterial viability assay; assay type: cell-based, Acinetobacter baumannii; conditions: one hour in PBS, CFU, ± SEM
Protocol: as §3, §4

[5] = tested on: A. baumannii ATCC BAA1605; experiment: Bacterial viability assay; assay type: cell-based, Acinetobacter baumannii; conditions: one hour in PBS, CFU, ± SEM
Protocol: as §3, §4

[6] = tested on: HaCaT human keratinocytes; experiment: Cell toxicity assay (MTS); assay type: cell-based; conditions: for CC50: MTS assay, concentration which killed 50% of the cells
Protocol: (§5) The HaCaT cell line was grown in Epilife medium (MEPI500Ca) with human keratinocyte growth supplement (Invitrogen, San Diego, CA). Both types of cells were harvested using Tryspin/EDTA and diluted to 1×10^5 cells per well in a 96-well plate. Ten concentrations covering five orders of magnitude were tested with six replicates per concentration. […] MTS/PMS solution (Promega, Madison, WI) was added to the wells and absorbance was measured at 490 nm two to four hours later. Data was analyzed using GraphPad Prism version 5.0 (GraphPad Software, La Jolla, CA) using a variable slope inhibition dose response curve.

[7] = tested on: Pseudomonas aeruginosa (strain PA01); experiment: Minimum inhibitory concentration (microdilution); assay type: cell-based; conditions: P. aeruginosa PA01; LB media; median of at least 3 determinations
Protocol: as §1

[8] = tested on: Enterococcus faecalis ATCC V583; experiment: Minimum inhibitory concentration (microdilution); assay type: cell-based; conditions: E. faecalis V583; LB media; median of at least 3 determinations
Protocol: as §1

[9] = tested on: Enterococcus faecalis MSU#10; experiment: Minimum inhibitory concentration (microdilution); assay type: cell-based; conditions: E. faecalis MSU#10; LB media; median of at least 3 determinations
Protocol: as §1

[10] = tested on: Staphylococcus aureus RN4220; experiment: Minimum inhibitory concentration (microdilution); assay type: cell-based; conditions: S. aureus RN4220; LB media; median of at least 3 determinations
Protocol: as §1

[11] = tested on: Escherichia coli (strain K91); experiment: Minimum inhibitory concentration (microdilution); assay type: cell-based; conditions: E. coli K91; LB media; median of at least 3 determinations
Protocol: as §1

[12] = tested on: Acinetobacter baumannii ATCC 19606; experiment: Minimum inhibitory concentration (microdilution); assay type: cell-based; conditions: A. baumannii ATCC 19606; LB media; median of at least 3 determinations
Protocol: as §1

[13] = tested on: E. faecalis V583; experiment: Bacterial viability assay; assay type: cell-based, Enterococcus faecalis; conditions: one hour in PBS, CFU, ± SEM
Protocol: as §3, §4

[14] = tested on: E. faecalis MSU#10; experiment: Bacterial viability assay; assay type: cell-based, Enterococcus faecalis; conditions: E. faecalis MSU#10, one hour in PBS, CFU, ± SEM, read-out: IC50
Protocol: as §3, §4

[15] = tested on: P. aeruginosa PA01; experiment: Bacterial viability assay; assay type: cell-based, Pseudomonas aeruginosa; conditions: one hour in PBS, CFU, ± SEM
Protocol: as §3, §4

[16] = tested on: E. coli K91; experiment: Bacterial viability assay; assay type: cell-based, Escherichia coli; conditions: one hour in PBS, CFU, ± SEM
Protocol: as §3, §4

[17] = tested on: human breast cancer cell line MDA-MB-231; experiment: Cell toxicity assay (MTS); assay type: cell-based; conditions: MDA-231; for CC50: MTS assay, concentration which killed 50% of the cells
Protocol: as §5

[18] = Cell toxicity assay (MTS); assay type: cell-based, human; conditions: human, MTS assay, concentration which killed 50% of the cells
Protocol: as §5

Row | Structure (SMILES) | IC50 [2] | IC50 [3] | IC50 [4] | IC50 [5] | Relative to chlorhexidine (factor by which cytotoxicity was reduced) [6] | CC50 [6] | IC50 [13] | IC50 [14] | IC50 [15] | IC50 [16] | Relative to chlorhexidine (factor by which cytotoxicity was reduced) [17] | CC50 [17] | further results
1 | N=C(N)NCCCCCCCCNc1nc(NCCCCCCCCNC(=N)N)nc(NCCCCCCCCNC(=N)N)n1 [TOAM-3G] | 4.7 ± 0.1 µM | 1.5 ± 0.6 µM | 2.6 ± 1.1 µM | 0.92 ± 0.1 µM | 1.9 | 3.6 µg/mL (≈ 5.68 µM) | 23 ± 14 µM | 5 ± 1.9 µM | 0.85 ± 0.19 µM | 0.68 ± 0.04 µM | – | – | MIC [1]: 1 µg/mL (≈ 1.58 µM); MIC [7]: 16 µg/mL (≈ 25.2 µM); MIC [8]: >64 µg/mL; MIC [9]: 16 µg/mL (≈ 25.2 µM); MIC [10]: 2 µg/mL (≈ 3.15 µM); MIC [11]: 8 µg/mL (≈ 12.6 µM); MIC [12]: >64 µg/mL
2 | N=C(N)NCCCCCCNc1nc(NCCCCCCNC(=N)N)nc(NCCCCCCNC(=N)N)n1 [THAM-3G] | > 100 µM | > 100 µM | 23 ± 14 µM | 14 ± 4 µM | 33 | 63 µg/mL (≈ 115 µM) | > 100 µM | > 100 µM | 14 ± 3 µM | 31 ± 12 µM | 29 | 74 µg/mL (≈ 135 µM) | –
3 | NCCCCNCCCN [Spermidine] | – | – | – | – | >79 | – | – | – | – | – | 8.5 | – | IC50 ([2]; Staphylococcus aureus, 1 h): > 100 µM; IC50 ([3]; Staphylococcus aureus, 1 h): > 100 µM; IC50 ([4]; Acinetobacter baumannii, ATCC19606, 1 h): > 100 µM; IC50 ([5]; Acinetobacter baumannii, ATCCBAA1605, 1 h): > 100 µM; CC50 ([18]; HaCaT keratinocytes): > 150 µg/mL; CC50 ([18]; MDA-MB-231 breast cancer cells (ATCC HTB-26), MDA-231): 22 µg/mL (≈ 151 µM); IC50 ([13]; Enterococcus faecalis, 1 h): > 100 µM; IC50 ([14]; Enterococcus faecalis, 1 h): > 100 µM; IC50 ([15]; Pseudomonas aeruginosa, 1 h): > 100 µM; IC50 ([16]; Escherichia coli, 1 h): > 100 µM
4 | N=C(NCCCCN(CCCNC(=N)Nc1ccccc1)C(=N)Nc1ccccc1)Nc1ccccc1 [Spermidine-3ΦG] | > 100 µM | > 100 µM | > 100 µM | > 100 µM | 210 | 400 µg/mL (≈ 801 µM) | > 100 µM | > 100 µM | > 100 µM | 3.2 ± 0.9 µM | 170 | 430 µg/mL (≈ 861 µM) | –
5 | N=C(NCCCN(CCCCN(CCCNC(=N)Nc1ccccc1)C(=N)Nc1ccccc1)C(=N)Nc1ccccc1)Nc1ccccc1 [Spermine-4ΦG] | – | > 100 µM | ≥ 100 µM | ≥ 100 µM | 56 | 110 µg/mL (≈ 163 µM) | > 100 µM | > 100 µM | > 100 µM | 23 ± 16 µM | >43 | >110 µg/mL | –
